Results as given in patent publication US6818203B2, “Use of perfluoroalkyl-containing metal complexes as contrast media in MR-imaging for visualization of plaque, tumors and necroses” (Schering Aktiengesellschaft, priority 2000, dated 2004).

Tests used:
[1] = system: iliac and inguinal lymph nodes; test: lymph node visualization (MRT) after intravenous administration in guinea pigs with stimulated lymph nodes; type: in vivo; conditions: 200 μmol of Gd/kg i.v.
Protocol: By way of example, the pictures in FIG. 14 show MR images of iliac and inguinal lymph nodes precontrast and up to 24 hours after intravenous administration of 200 μmol of Gd/kg of body weight of metal complex XIV in guinea pigs with stimulated lymph nodes (Freund adjuvant). […] The enhancement was 127% at the time of 60 minutes p.i.

[2] = organ distribution (including tumor and lymph node concentration) after intravenous administration in prostate cancer-bearing rats; type: in vivo; conditions: 200 μmol Gd/kg i.v.
Protocol: After intravenous administration of 200 μmol of total gadolinium/kg of body weight of a polar Gd-chelate with perfluorinated side chains (metal complex XIV) in rats (Cop-inbreeding with Dunning R3327 MAT-Lu prostate cancer i.m.-implanted 12 days earlier), the metal content in various organs, in tumors, as well as in the lymph nodes (pooled as mesenteric and peripheral lymph nodes) was determined 10 minutes, 1 hour and 24 hours after administration (MW±SD, n=3).

[3] = Mesentric lymph nodes, 10 min p.i.
[4] = Mesentric lymph nodes, 1 h p.i.
[5] = Mesentric lymph nodes, 24 h p.i.
[6] = Peripheral lymph nodes, 10 min p.i.
[7] = Peripheral lymph nodes, 1 h p.i.
[8] = Peripheral lymph nodes, 24 h p.i.
[9] = The remainder of the body, 10 min p.i.
[10] = The remainder of the body, 1 h p.i.
[11] = The remainder of the body, 24 h p.i.

With CC(C(=O)NCC(=O)NCC(=O)N1CCN(C(=O)CNC(=O)CNC(=O)C(C)N2CCN(CC(=O)[O-])CCN(CC(=O)[O-])CCN(CC(=O)[O-])CC2)CCN(C(=O)COCCC(F)(F)C(F)(F)C(F)(F)C(F)(F)C(F)(F)C(F)(F)C(F)(F)C(F)(F)F)CCN(C(=O)CNC(=O)CNC(=O)C(C)N2CCN(CC(=O)[O-])CCN(CC(=O)[O-])CCN(CC(=O)[O-])CC2)CC1)N1CCN(CC(=O)[O-])CCN(CC(=O)[O-])CCN(CC(=O)[O-])CC1.[Gd+3].[Gd+3].[Gd+3] (stereo not shown) [metal complex XIV, 1,4,7-Tris{1,4,7-tris(N-(carboxylatomethyl)-10-[N-1-methyl-3,6-diaza-2,5,8-trioxooctane-1,8-diyl]-1,4,7,10-tetraazacyclododecane, Gdcomplex}-10-N-2H,2H,4H,4H,5H,5H-3-oxa-perfluoro-tridecanoyl]-1,4,7,10-tetraazacyclo-dodecane, Gd complex] the “enhancement in lymph node tissue” value ([1]; 60 minutes p.i.) was 127%, the “signal in healthy lymph node tissue (T1-weighted gradient-echo images)” value ([1]; very shortly after injection) was “strong signal rise” and the “% Dose” value ([2]; Balance (without blood values), 24 h p.i.) was 95.07 ± 2.41 % Dose. The “% Dose” value ([2]; Blood (58 ml of blood/kg of body weight), 10 min p.i.) was 26.73 ± 0.84 % Dose, the “% Dose” value ([2]; Blood (58 ml of blood/kg of body weight), 1 h p.i.) was 16.13 ± 1.77 % Dose and the “% Dose” value ([2]; Blood (58 ml of blood/kg of body weight), 24 h p.i.) was 0.61 ± 0.03 % Dose. It also gave a Gd concentration ([2]; Blood, 10 min p.i.) of 957 ± 38 µmol/L, a Gd concentration ([2]; Blood, 1 h p.i.) of 575 ± 56 µmol/L and a Gd concentration ([2]; Blood, 24 h p.i.) of 22 ± 1 µmol/L. The “% Dose” value ([2]; Brain, 10 min p.i.) was 0.10 ± 0.03 % Dose, the Gd concentration ([2]; Brain, 10 min p.i.) was 38 ± 6 µmol/L and the “% Dose” value ([2]; Brain, 1 h p.i.) was 0.06 ± 0.00 % Dose. For the same compound, the Gd concentration ([2]; Brain, 1 h p.i.) was 22 ± 2 µmol/L, the “% Dose” value ([2]; Brain, 24 h p.i.) was 0.01 ± 0.01 % Dose and the Gd concentration ([2]; Brain, 24 h p.i.) was 4 ± 4 µmol/L. The “% Dose” value ([2]; Feces 0-24 h) was 6.00 ± 4.91 % Dose, the Gd concentration ([2]; Feces 0-24 h) was 781 ± 611 µmol/L and the “% Dose” value ([2]; Femur, 10 min p.i.) was 0.39 ± 0.02 % Dose. For the same compound, the Gd concentration ([2]; Femur, 10 min p.i.) was 115 ± 3 µmol/L, the “% Dose” value ([2]; Femur, 1 h p.i.) was 0.28 ± 0.03 % Dose and the Gd concentration ([2]; Femur, 1 h p.i.) was 81 ± 10 µmol/L. The “% Dose” value ([2]; Femur, 24 h p.i.) was 0.03 ± 0.00 % Dose, the Gd concentration ([2]; Femur, 24 h p.i.) was 9 ± 1 µmol/L and the “% Dose” value ([2]; Heart, 10 min p.i.) was 0.32 ± 0.01 % Dose. The Gd concentration ([2]; Heart, 10 min p.i.) was 320 ± 8 µmol/L, the “% Dose” value ([2]; Heart, 1 h p.i.) was 0.19 ± 0.01 % Dose and the Gd concentration ([2]; Heart, 1 h p.i.) was 190 ± 15 µmol/L. The “% Dose” value ([2]; Heart, 24 h p.i.) was 0.02 ± 0.00 % Dose, the Gd concentration ([2]; Heart, 24 h p.i.) was 19 ± 0 µmol/L and the “% Dose” value ([2]; Intestine (empty), 10 min p.i.) was 1.55 ± 0.09 % Dose. The Gd concentration ([2]; Intestine (empty), 10 min p.i.) was 242 ± 15 µmol/L, the “% Dose” value ([2]; Intestine (empty), 1 h p.i.) was 1.16 ± 0.22 % Dose and the Gd concentration ([2]; Intestine (empty), 1 h p.i.) was 201 ± 32 µmol/L. The “% Dose” value ([2]; Intestine (empty), 24 h p.i.) was 0.26 ± 0.04 % Dose, the Gd concentration ([2]; Intestine (empty), 24 h p.i.) was 36 ± 5 µmol/L and the “% Dose” value ([2]; Kidney, 10 min p.i.) was 1.76 ± 0.14 % Dose. The Gd concentration ([2]; Kidney, 10 min p.i.) was 761 ± 60 µmol/L, the “% Dose” value ([2]; Kidney, 1 h p.i.) was 2.84 ± 0.61 % Dose and the Gd concentration ([2]; Kidney, 1 h p.i.) was 1181 ± 232 µmol/L. The “% Dose” value ([2]; Kidney, 24 h p.i.) was 0.81 ± 0.09 % Dose, the Gd concentration ([2]; Kidney, 24 h p.i.) was 338 ± 49 µmol/L and the “% Dose” value ([2]; Liver, 10 min p.i.) was 2.62 ± 0.11 % Dose. The Gd concentration ([2]; Liver, 10 min p.i.) was 192 ± 12 µmol/L, the “% Dose” value ([2]; Liver, 1 h p.i.) was 2.04 ± 0.15 % Dose and the Gd concentration ([2]; Liver, 1 h p.i.) was 147 ± 7 µmol/L. For the same compound, the “% Dose” value ([2]; Liver, 24 h p.i.) was 0.96 ± 0.05 % Dose, the Gd concentration ([2]; Liver, 24 h p.i.) was 64 ± 4 µmol/L and the “% Dose” value ([2]; Lung, 10 min p.i.) was 1.04 ± 0.02 % Dose. For the same compound, the Gd concentration ([2]; Lung, 10 min p.i.) was 603 ± 30 µmol/L, the “% Dose” value ([2]; Lung, 1 h p.i.) was 0.80 ± 0.06 % Dose and the Gd concentration ([2]; Lung, 1 h p.i.) was 415 ± 39 µmol/L. The “% Dose” value ([2]; Lung, 24 h p.i.) was 0.09 ± 0.01 % Dose, the Gd concentration ([2]; Lung, 24 h p.i.) was 44 ± 4 µmol/L and the “% Dose” value [2, 3] was 0.08 ± 0.01 % Dose. The Gd concentration [2, 3] was 291 ± 29 µmol/L, the “% Dose” value [2, 4] was 0.05 ± 0.01 % Dose and the Gd concentration [2, 4] was 179 ± 16 µmol/L. For the same compound, the “% Dose” value [2, 5] was 0.02 ± 0.00 % Dose, the Gd concentration [2, 5] was 50 ± 6 µmol/L and the “% Dose” value ([2]; Muscle, 10 min p.i.) was 0.06 ± 0.02 % Dose. The Gd concentration ([2]; Muscle, 10 min p.i.) was 93 ± 5 µmol/L, the “% Dose” value ([2]; Muscle, 1 h p.i.) was 0.04 ± 0.00 % Dose and the Gd concentration ([2]; Muscle, 1 h p.i.) was 56 ± 3 µmol/L. For the same compound, the “% Dose” value ([2]; Muscle, 24 h p.i.) was 0.00 ± 0.00 % Dose, the Gd concentration ([2]; Muscle, 24 h p.i.) was 8 ± 1 µmol/L and the “% Dose” value ([2]; Pancreas, 10 min p.i.) was 0.35 ± 0.02 % Dose. The Gd concentration ([2]; Pancreas, 10 min p.i.) was 191 ± 14 µmol/L, the “% Dose” value ([2]; Pancreas, 1 h p.i.) was 0.21 ± 0.05 % Dose and the Gd concentration ([2]; Pancreas, 1 h p.i.) was 139 ± 26 µmol/L. For the same compound, the “% Dose” value ([2]; Pancreas, 24 h p.i.) was 0.03 ± 0.01 % Dose, the Gd concentration ([2]; Pancreas, 24 h p.i.) was 25 ± 1 µmol/L and the “% Dose” value [2, 6] was 0.13 ± 0.00 % Dose. The Gd concentration [2, 6] was 284 ± 19 µmol/L, the “% Dose” value [2, 7] was 0.14 ± 0.02 % Dose and the Gd concentration [2, 7] was 254 ± 14 µmol/L. For the same compound, the “% Dose” value [2, 8] was 0.02 ± 0.00 % Dose, the Gd concentration [2, 8] was 51 ± 5 µmol/L and the “% Dose” value ([2]; Spleen, 10 min p.i.) was 0.13 ± 0.01 % Dose. For the same compound, the Gd concentration ([2]; Spleen, 10 min p.i.) was 200 ± 13 µmol/L, the “% Dose” value ([2]; Spleen, 1 h p.i.) was 0.08 ± 0.01 % Dose and the Gd concentration ([2]; Spleen, 1 h p.i.) was 123 ± 10 µmol/L. The “% Dose” value ([2]; Spleen, 24 h p.i.) was 0.06 ± 0.00 % Dose, the Gd concentration ([2]; Spleen, 24 h p.i.) was 69 ± 5 µmol/L and the “% Dose” value ([2]; Stomach (empty), 10 min p.i.) was 0.56 ± 0.07 % Dose. For the same compound, the Gd concentration ([2]; Stomach (empty), 10 min p.i.) was 244 ± 17 µmol/L, the “% Dose” value ([2]; Stomach (empty), 1 h p.i.) was 0.40 ± 0.05 % Dose and the Gd concentration ([2]; Stomach (empty), 1 h p.i.) was 165 ± 21 µmol/L. For the same compound, the “% Dose” value ([2]; Stomach (empty), 24 h p.i.) was 0.05 ± 0.00 % Dose, the Gd concentration ([2]; Stomach (empty), 24 h p.i.) was 19 ± 2 µmol/L and the “% Dose” value ([2]; Sum of the organs, 10 min p.i.) was 80.06 ± 2.84 % Dose. For the same compound, the “% Dose” value ([2]; Sum of the organs, 1 h p.i.) was 72.94 ± 5.83 % Dose, the “% Dose” value ([2]; Sum of the organs, 24 h p.i.) was 9.21 ± 0.27 % Dose and the “% Dose” value [2, 9] was 70.71 ± 2.74 % Dose. The Gd concentration [2, 9] was 419 ± 27 µmol/L, the “% Dose” value [2, 10] was 64.27 ± 5.50 % Dose and the Gd concentration [2, 10] was 392 ± 25 µmol/L. For the same compound, the “% Dose” value [2, 11] was 6.81 ± 0.16 % Dose, the Gd concentration [2, 11] was 42 ± 0 µmol/L and the “% Dose” value ([2]; Tumor, 10 min p.i.) was 0.25 ± 0.05 % Dose. For the same compound, the Gd concentration ([2]; Tumor, 10 min p.i.) was 246 ± 25 µmol/L, the “% Dose” value ([2]; Tumor, 1 h p.i.) was 0.37 ± 0.14 % Dose and the Gd concentration ([2]; Tumor, 1 h p.i.) was 266 ± 87 µmol/L. The “% Dose” value ([2]; Tumor, 24 h p.i.) was 0.04 ± 0.01 % Dose, the Gd concentration ([2]; Tumor, 24 h p.i.) was 56 ± 4 µmol/L and the “% Dose” value ([2]; Urine 0-24 h) was 79.86 ± 3.13 % Dose. It also gave a Gd concentration ([2]; Urine 0-24 h) of 619 ± 19 µmol/L.
